Results: publication PMC8783508, “A novel D-amino acid peptide with therapeutic potential (ISAD1) inhibits aggregation of neurotoxic disease-relevant mutant Tau and prevents Tau toxicity in vitro” (Alzheimer's Research & Therapy, 2022)
Non-standard residues stand in square brackets, D forms with d. Residues, ends and D or L forms follow the SMILES beside them.

Legend:
Tau = details: PHF6 addressing peptide; read-out: Inhibition of fibrillization of Tau (compared with the IC50 of ISAD1); cited from earlier work
Method: Aggregation of Tau is the primary hallmark for the disease pathology in AD and other tauopathies. A significant inhibition of the aggregation by therapeutic molecules is considered beneficial. Our novel peptide ISAD1 inhibited the fibrillization of Tau^FL and pro-aggregant Tau^RDΔK (IC50 of ~3 μM) in concentrations which are typical for peptide inhibitors.

Tau^FL [1] = target: T1, Tau^FL (Homo sapiens, UniProt P10636); assay: Fibrillization of Tau^FL monitored by ThT assay; assay type: biochemical; parameters: key to Inhibition of Tau^FL aggregation: (+/-) indicates comparably low inhibition of Tau^FL fibrillization; (-) indicates that the peptide showed no effect on fibril formation; details: L-peptides
T1 construct: Tau^FL Full-length human Tau (441 AA); made in house
Method: Tau aggregation assays were performed under reducing conditions. Before the addition of heparin and peptides, a final concentration of 1 mM dithiothreitol (DTT) was added to the Tau protein solution and heated at 95 °C for 10 min. […] Final concentration of 10 μM ThT was used for monitoring fibrillization. In case of the two hexapeptides, 5 μM PHF6 and 5 μM PHF6*, respectively, without addition of the aggregation inducer heparin (16000 Da) were used for monitoring the fibrillization process. The assays were performed with 50-μl sample volume per well in a 96-well half area microtiter plate (Greiner Bio-One GmbH, Frickenhausen, Germany). The fibrillization of Tau^FL was monitored by ThT, and the relative fluorescence intensity of ThT was read out at 440 excitation/521 emission nm in a BMG microplate reader (BMG Labtech, Ortenberg, Germany).

Tau^FL [2] = target: T1, Tau^FL; assay: ELISA of FAM-labeled peptide binding to Tau^FL; details: FAM-labelled peptide 0.1 – 200 µM, Tau^FL 5 µg/ml, n = 3
Method: A 96-well microtiter plate (Greiner Bio-One GmbH, Frickenhausen, Germany) was coated with 5 μg/ml Tau^FL or fibrils in coating buffer for incubation overnight at 4 °C. For investigation of the binding properties to the hexapeptide, 5 μM PHF6 was coated overnight. After three times washing with 300 μl phosphate-buffered saline with Tween20 (PBST: PBS with 0.1 % [v/v] Tween20), the plate was blocked with 3 % [w/v] BSA in PBS for 1 h at RT, followed by further washing steps. […] The plate was washed three times with PBST before 100 μl sheep anti-fluorescein isothiocyanate (FITC) HRP-conjugate (1:5000 dilution in PBST; AbD Serotec, Puchheim, Germany) was added and incubated for 1 h at RT with gentle agitation. Again, the plate was washed for three times, followed by addition of the TMB substrate. The reaction was stopped with 20 % [v/v] H2SO4 and absorbance was measured at 450 nm.

[3] = system: N2a cells expressing Tau^RDΔK; assay: Uptake of FAM-labeled D-peptides by confocal microscopy; assay type: cell-based; details: 25 μM FAM-labeled peptide, 24 h, fixed cells
Method: In order to become potentially suitable for therapeutic development, the D-peptides should be internalized by neurons. To test this, 25 μM FAM-labeled ISAD1 or its inversed form was added to cells that express pro-aggregant mutant Tau^RDΔK for 24 h followed by cell fixation.
Fig. 7 Uptake of fluorescence-labeled D-peptides analyzed by confocal microscopy. 25 μM FAM-labeled peptides (ISAD1 and ISArev) were incubated with N2a cells expressing Tau^RDΔK for 24 h. The uptake of D-peptides was analyzed by confocal microscopy. As shown in the representative images, the peptides are mainly localized in the cytoplasm (A1, B1 Draq5 shown as red; A2 ISAD1-FAM, B2 ISAD1rev-FAM; A3, B3 merged images)

N2a-Tau^RDΔK cells [4] = assay: MTT cytotoxicity of the peptides alone; assay type: cell-based; details: 25, 50, 100, 250 μM peptide, 24 h, n = 3
Method: Cell viability was analyzed in accordance with the manufacturer’s protocol (Roche Diagnostics, Mannheim, Germany; cell proliferation kit II (MTT)). This assay is based on the cleavage of the yellow tetrazolium salt MTT into purple formazan dye by metabolic active cells. The color changes only in viable cells and can be directly quantified using a scanning multiwell spectrophotometer. In all experiments, the cells were grown as described previously. The cells (25,000 cells/well or 80% confluence) were plated on poly D-lysine-coated 96-well plates (Greiner Bio-One GmbH, Frickenhausen, Germany) for stronger attachment from overnight to 24 h at 37 °C. Fibrillized Tau^RDΔK was generated by incubating 200 μM Tau^RDΔK in BES buffer at 37 °C for 24 h in the presence of 2 mM D-peptides (Tau^RDΔK:peptide = 1:10). Successful fibrillization was verified using ThS (5 μM Tau^RDΔK, 10 μM ThS) measurement. The aggregated Tau^RDΔK (10 μM final concentration), Tau^RDΔK (10 μM) + peptide (100 μM) samples (ISAD1 and ISAD1rev), buffer only (negative control, set to 100% cell viability), and TritonX-100 (2%, cytotoxic agent, positive control) were incubated on N2a-Tau^RDΔK cells (100 μl solution) for another 24 h. The cell viability was measured in accordance with the manufacturer’s protocol.
A MTT-based cytotoxicity assay in the presence of ISAD1 and ISAD1rev peptides. […]

N2a-Tau^RDΔK cells [5] = assay: LDH release with the peptides alone; assay type: cell-based; details: 25, 50, 100, 250 μM peptide, 24 h, n = 3
Method: N2a cells expressing Tau^RDΔK were plated on poly D-lysine-coated 96-well plates with a density of 25,000 cells/well. At 70 to 80% confluence, the cells were treated for 24 h with various concentrations of D-peptides (25, 50, 100, and 250 μM) or Tau^RDΔK (10 μM final concentration) in the presence of ISAD1 and ISAD1rev (100 μM final concentration). The ability of D-peptides to neutralize the toxicity of Tau^RDΔK oligomers/fibrils was investigated by measuring the amount of released LDH (Roche Diagnostics, Mannheim, Germany). Therefore, 50 μL of each well was transferred to a fresh 96-well plate and 50 μL of reagent was added followed by a 30-min incubation period at RT. Finally, 50 μL of stop solution (1 N HCl) was added and absorbance was recorded at 492 nm (TECAN spectrofluorometer, Männedorf, Switzerland). Absorbance values were corrected by background values and the percentage of LDH release was calculated.

T1 sequence (P10636 1-441 isoform P10636-8): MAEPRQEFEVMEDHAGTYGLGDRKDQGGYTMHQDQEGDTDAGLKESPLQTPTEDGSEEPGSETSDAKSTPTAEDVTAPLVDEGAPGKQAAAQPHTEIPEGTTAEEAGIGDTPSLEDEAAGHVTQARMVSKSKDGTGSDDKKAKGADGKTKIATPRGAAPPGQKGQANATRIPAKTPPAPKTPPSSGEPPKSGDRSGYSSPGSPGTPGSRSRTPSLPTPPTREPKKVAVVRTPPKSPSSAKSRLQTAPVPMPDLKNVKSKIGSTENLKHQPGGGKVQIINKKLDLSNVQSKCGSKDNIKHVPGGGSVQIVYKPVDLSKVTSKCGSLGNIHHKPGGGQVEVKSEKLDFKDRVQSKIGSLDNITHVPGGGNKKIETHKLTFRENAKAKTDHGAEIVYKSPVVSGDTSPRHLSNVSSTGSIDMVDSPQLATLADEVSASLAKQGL

TLKIVW
IC50 (Tau): 54.1 µM

SASVTSKFDALL [ISAL1sam, scrambled L-amino acid variant of ISAL1, control peptide]
Inhibition of Tau^FL fibrillization, in words (Tau^FL [1]; ThT assay): did not inhibit | Inhibition of Tau^FL aggregation (Tau^FL [1]; ThT fibrillization assay): - | Binding to Tau^FL in ELISA, in words (Tau^FL [2]): no significant binding

CC(C)C[C@@H](NC(=O)[C@@H](CCCCN)NC(=O)[C@@H](Cc1ccccc1)NC(=O)[C@H](NC(=O)[C@H](N)CO)C(C)C)C(=O)N[C@H](CO)C(=O)N[C@H](CC(C)C)C(=O)N[C@@H](C(=O)N[C@H](CC(=O)O)C(=O)N[C@H](C)C(=O)N[C@H](C)C(=O)N[C@H](CO)C(=O)O)[C@H](C)O [ISAD1] (H-[dS][dV][dF][dK][dL][dS][dL][dT][dD][dA][dA][dS]-OH)
Intracellular localisation [3]: accumulated in the cytosol but were excluded from the nucleus | Uptake by cells [3]: almost all cells took up the D-peptides | Cytotoxicity, MTT (N2a-Tau^RDΔK cells [4]): do not induce toxic effects | Cytotoxicity, LDH release (N2a-Tau^RDΔK cells [5]): do not induce toxic effects
